PubChem BioAssay AID463229 (Broad Institute, 2010)
The source made the active and inactive calls.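 The calls were made as follows: active = compounds raising the signal whose fitted half-maximal concentration is at or below their top tested dose (cut at about 25 µM in these data); inconclusive = flat fit at 30 to 70% activity, or a poor fit; inactive = the rest.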

System: INS-1E rat beta cells, no cytokines, CellTiter-Glo ATP, 48 h
Assay: ATP level change in INS-1E without cytokines, dose response, counter-screen for beta-cell apoptosis protection project, INS-1E rat cells, ATP luminescence, cherry pick (AID 463229)

Row | SMILES | AC50
1 | COc1ccc(N/N=C/c2c(C(=O)O)ccc3ccccc23)cc1 | 4.35 µM
2 | Cc1cccc2sc(NNC(=O)c3ccc(S(=O)(=O)N4CCc5ccccc5C4)cc3)nc12 | 3.93 µM
3 | c1ccc(CN2CCN(Cc3c[nH]c4ccccc34)CC2)cc1 | 7.83 µM
4 | CCOc1ccc(Nc2nc(Cc3nnc(SCC(=O)c4ccc(C)c(C)c4)o3)cs2)cc1 | 10.6 µM
5 | CCN(CC)CCn1c2ccccc2c2cnc(N)c(C#N)c21 | 14.3 µM
6 | COc1nc(Nc2nc3ccccc3c(=O)[nH]2)nc2ccc(C)cc12 | 2.31 µM
7 | O=C(Nc1ccc(-c2noc(-c3cccs3)n2)cc1)c1cccnc1 | 13 µM
8 | N#CC1=C(N)N2C(=C(C#N)C1c1ccc(Br)cc1)Nc1ccccc12 (stereo not given) | 1.87 µM
9 | CC(=O)Nc1sc2c(c1-c1nc3ccccc3s1)CCN(C(C)C)C2 | 5.11 µM
10 | CCCC(=O)NC(c1ccccc1OC)c1ccc2cccnc2c1O (stereo not given) | 3.28 µM
11 | CCCC(=O)NC(c1ccc(OC)c(OC)c1)c1cc(Cl)c2cccnc2c1O (stereo not given) | 7.47 µM
12 | Cc1sc2ncnc(N3CCN(S(=O)(=O)c4ccc(C(C)(C)C)cc4)CC3)c2c1C | 4.17 µM
13 | COc1ccc(Cc2nnc(N/N=C/c3ccc(O)cc3)[nH]c2=O)cc1OC | 4.32 µM
14 | C/C(=N\NC(=O)COc1ccccc1-c1ccccc1)c1ccc(O)cc1O | 10.5 µM
15 | CCCCC(=O)NC(c1ccccc1Cl)c1ccc2cccnc2c1O (stereo not given) | 2.09 µM
16 | CCn1c(NN=O)nc2ccccc21 | 7.85 µM
17 | Cc1cc(N2CCN(c3nc4ccccc4s3)CC2)n2ncnc2n1 | 7.32 µM
18 | Cc1ccc(C(C)C)c(OCC(O)CN2CCc3ccccc3C2)c1 (stereo not given) | 9.7 µM
19 | Cn1c(NN=O)nc2ccccc21 | 4.08 µM
20 | CCCn1c(Nc2nc3ccccc3n2C)nc2ccccc21 | 7.26 µM
21 | Cc1[nH]n(-c2ccccc2)c(=O)c1/C=N/NC(=O)c1cccc(F)c1 | 4.23 µM
22 | COc1cccc(/C=N/Nc2nc(Nc3ccccc3)nc(-n3nc(C)cc3C)n2)c1O | 12.3 µM

Row | SMILES | AC50
23 | CNC[C@H](Cc1ccccc1)NC[C@@H](Cc1cccc2ccccc12)NCCc1ccc(C)cc1 | 7.64 µM
24 | O=C(NCc1cccnc1)/C(=C/c1ccc(-c2cccc(Cl)c2)o1)S(=O)(=O)c1ccccc1 | 4.93 µM
25 | COc1ccccc1-[n+]1c(C)cc(/C=C2\Sc3ccccc3N2C)cc1C | < 0.195 µM
26 | Cc1cccc(Oc2cc(NC(=O)c3ccccc3)cc([N+](=O)[O-])c2)c1 | 7.84 µM
27 | Cc1ccc(-c2c[n+](Cc3ccc(Cl)cc3)c3n2CCC3)cc1 | 7.79 µM
28 | C/C(=N\NC(=O)c1c(C)nc2ccccn12)c1ccc(O)cc1O | 19.5 µM
29 | Cc1cc(-c2ccccc2)cc(C)[n+]1Cc1ccccc1 | 0.667 µM
30 | C=C(C)C(=O)N1CC2(CC(c3cccc(NC(=O)COc4ccc(Cl)cc4)c3)=NO2)C[C@@H]1C(N)=O (stereo not given in full) | 12.8 µM
31 | O=[N+]([O-])c1ccc(-[n+]2ccc3ccccc3c2)c([N+](=O)[O-])c1 | 7.89 µM
32 | CC(C)(C)n1nnnc1C(c1ccc(F)cc1)N(Cc1ccc(F)cc1)Cc1ccco1 (stereo not given) | 9.25 µM
33 | Cc1nc(N2CCN(C(=O)c3ccco3)CC2)c2c3c(sc2n1)CC(C)CC3 (stereo not given) | 5.51 µM
34 | Cc1ccc2[nH]c3c(N4CCc5ccccc5C4)ncnc3c2c1 | 2.58 µM
35 | Cc1ccn2c(Nc3ccccc3)c(-c3ccccn3)nc2c1 | 7.4 µM
36 | O=C(Nc1cccc(C(F)(F)F)c1)Nc1ccc(N2CCCC2)c(S(=O)(=O)Nc2ccccc2Cl)c1 | 4.27 µM
37 | COc1ccc(C(=O)N/N=C(\C)c2ccccn2)cc1OC | 2.54 µM
38 | COCCNc1nc2c(c(=O)n(C)c(=O)n2C)n1Cc1cccc(C(F)(F)F)c1 | 12.1 µM
39 | COc1cc(SC#N)ccc1N=Cc1c(C)[nH]n(-c2ccc(C)c(C)c2)c1=O | 5.85 µM
40 | COc1cccc(/C=N/NC(=O)c2[nH]nc3c2CCc2ccccc2-3)c1O | 4.25 µM
41 | CC(C)OCCCNc1ncnc2c1[nH]c1ccc(F)cc12 | 2.46 µM
42 | CCc1c(C2(O)CCCCC2)[nH]c2cc(C(F)(F)F)ccc12 | 11 µM
43 | Cc1[nH]c2c(ccc3ccccc32)c1C1C(CCN)C1(C)C (stereo not given) | 14.6 µM
44 | O=C(N/N=C/c1cc(Cl)ccc1O)C(=O)Nc1ccccc1OC(F)(F)C(F)F | 8.81 µM

Row | SMILES | AC50
45 | CCCC(=O)NC(c1ccc(C)cc1)c1ccc2cccnc2c1O (stereo not given) | 1.99 µM
46 | CCOC(=O)COc1ccc2ccccc2c1/C=C/[N+](=O)[O-] | 10.6 µM
47 | Cc1nc(C)c(-c2csc(NCCc3ccccc3)n2)s1 | 24.1 µM
48 | N#C/C(=C\c1ccc([N+](=O)[O-])o1)c1nc2ccccc2[nH]1 | 4.09 µM
49 | CN1/C(=C\C(=O)c2ccco2)C(C)(C)c2ccccc21 | 7.58 µM
50 | COc1ccc(-c2c([C@H]3[C@H]4C=CC[C@@H](C)[C@@H]4C(=O)N3Cc3ccccc3)ccc3ccccc23)cc1 | 7.67 µM
51 | Cc1ccccc1N1CCN(Cc2c[nH]c3ccccc23)CC1 | 7.37 µM
52 | CC(C)c1ccc(/C=C(\c2nc3ccccc3[nH]2)S(=O)(=O)c2ccccc2)cc1 | 4.54 µM
53 | CC[C@H]1CN2CCc3cc(OC)c(OC)cc3[C@@H]2C[C@@H]1C[C@H]1NCCc2cc(OC)c(OC)cc21 | 9.67 µM
54 | CCc1ccc(OCC(=O)NC(NC(=S)Nc2ccc(C)cc2C)C(Cl)(Cl)Cl)cc1 (stereo not given) | 11.2 µM
55 | O=[N+]([O-])c1ccc(N=Nc2c(Cl)cc(O)cc2Cl)cc1 | 2.08 µM
56 | CC(C)C(=O)NC(c1cccs1)c1cc([N+](=O)[O-])c2cccnc2c1O (stereo not given) | 9.51 µM
57 | O=C(NC(Nc1nc2ccc([N+](=O)[O-])cc2s1)(C(F)(F)F)C(F)(F)F)c1ccccc1 | 0.367 µM
58 | O=C(NC1(Cc2ccccc2)CCN(CCCc2ccccc2)C1=O)c1ccccc1 (stereo not given) | 4.71 µM
59 | CCCCCCCCCCOC(=O)Cn1c(COc2cccc(C)c2)[n+](C)c2ccccc21 | 4.71 µM
60 | O=C(Nc1ccc(OCC(=O)N2CCC(Cc3ccccc3)CC2)cc1)c1ccco1 | 7 µM
61 | CCC(C)Nc1nc(-c2ccccn2)nc2ccccc12 (stereo not given) | 9.01 µM
62 | COC(=O)c1c(C)oc2ccc(N(C(=O)c3ccncc3)S(=O)(=O)c3ccc(C)cc3C)cc12 | 5.76 µM
63 | O=C(C#Cc1ccccc1)c1ccco1 | 7.8 µM
64 | O=C(NCc1cccnc1)/C(=C/c1ccc(-c2ccc(Cl)cc2)o1)S(=O)(=O)c1ccccc1 | 6.93 µM
65 | COc1ccc2c(c1)[nH]c1c(N3CCN(Cc4ccc5c(c4)OCO5)CC3)ncnc12 | 3.45 µM
66 | Cc1ccc(C2(c3ccc(C)cc3)CC2C(=O)Nc2ccc([N+](=O)[O-])cc2O)cc1 (stereo not given) | 3.79 µM

Row | SMILES | AC50
67 | O=C(NC(NC(=S)Nc1ccccc1)C(Cl)(Cl)Cl)c1cccc(Cl)c1 (stereo not given) | 13.9 µM
68 | Cc1ccc(C(=O)N2N=C(c3ccc(Br)cc3)CC2c2ccccc2O)cc1 (stereo not given) | 7.3 µM
69 | O=C(NNc1ccnc2cc(Cl)ccc12)C1CCCCC1 | 2.53 µM
70 | COc1ccccc1/C=C1\SC(=O)N(CCC(=O)NCCCn2ccnc2)C1=O | 8.2 µM
71 | CCc1ccc(S(=O)(=O)/N=C2/C=C(Sc3ncn[nH]3)C(=O)c3ccccc32)cc1 | 9.6 µM
72 | CC[C@]1(c2ccccc2OC)ON(c2ccccc2C(F)(F)F)C1=O | 4.55 µM
73 | CN(C)C(=O)c1ccc(NC(=O)c2cccc(S(=O)(=O)N3CCCCCC3)c2)cc1 | > 26 µM (inactive)
74 | Cc1c(C)c2cccnc2c2ncccc12 | 2.49 µM
75 | CC#CC[N+](C)(C)CCCCCCCCCCCC | 2.23 µM
76 | Oc1ccc(N=Nc2ccccc2C(F)(F)F)c2cccnc12 | 3.18 µM
77 | O=C(N/N=C/c1ccc[nH]1)c1ccc(COc2cccc3cccnc23)cc1 | 1.92 µM
78 | CC(=O)c1ccc(N2CCN(S(=O)(=O)c3ccc4c(c3)CC(C)N4C(C)=O)CC2)cc1 (stereo not given) | 8.54 µM
79 | Cc1ccc(-c2c[n+]3c(n2-c2ccccc2)CCC3)cc1 | 2.02 µM
80 | CCN(CC)C(=O)c1cc([N+](=O)[O-])cc2c1-c1ccc([N+](=O)[O-])cc1C2=C(C#N)C#N | 9.06 µM
81 | CC(C)CNC(=O)COC(=O)c1c2c(nc3ccccc13)/C(=C/c1cccs1)CC2 | 1.5 µM
82 | O=C(N/N=C/c1cc(Br)ccc1OC(=O)c1ccc(Br)cc1)c1ccncc1 | 6.01 µM
83 | CCOC(=O)C(=CNc1ccc(C(O)(C(=O)OCC)C(F)(F)F)cc1C)C(=O)OCC (stereo not given) | 5.26 µM
84 | Oc1ccc(N=Nc2nccs2)c(O)c1 | 6.64 µM
85 | COc1ccc(-c2cc(-c3ccccc3)[n+](C)c(-c3ccccc3)c2)cc1 | 4.28 µM
86 | CCn1c(C)nc2cc(C(=O)N/N=C/c3cccc(O)c3O)ccc21 | 8.42 µM
87 | Cn1nc(C(C)(C)C)cc1C(=O)NCc1ccc(N2CCCC2=O)cc1 | 5.65 µM
88 | CCSCCc1nnc(NC(=O)Nc2cccc(C(F)(F)F)c2)s1 | 4.25 µM

Row | SMILES | AC50
89 | CCOC(=O)c1c(CSc2nc(C)cc(C)c2C#N)n(C)c2cc(Br)c(OC(C)=O)cc12 | 3.73 µM
90 | COc1ccc(OC)c(NC(=O)CSc2nnc(-c3cccnc3)s2)c1 | 7.37 µM
91 | O=S(=O)(c1ccc2c(c1)OCCO2)N1CCN(c2ncnc3sccc23)CC1 | 4.9 µM
92 | COc1ccc(-n2cc(-c3ccccc3)[n+]3c2CCCCC3)cc1 | 1.94 µM
93 | CCOc1ccc(-n2c(-c3ccccc3)c[n+]3c2CCCCC3)cc1 | 0.85 µM
94 | COc1ccc(O)c(/C=N/Nc2nc(Nc3ccccc3)nc(-n3nc(C)cc3C)n2)c1 | 11.3 µM
95 | COc1cc(NC(=O)c2[nH]cnc2C(N)=O)cc(C(=O)Nc2cccc(C(F)(F)F)c2)c1 | 5.21 µM
96 | O=C(CN1CCCc2ccccc21)N/N=C/c1ccccc1O | 15 µM
97 | O=C(NCc1cccnc1)/C(=C\c1ccc(-c2ccc(Br)cc2)o1)S(=O)(=O)c1ccccc1 | 4.27 µM
98 | Oc1ccc(Br)cc1CNc1cccc2cccnc12 | 12.8 µM
99 | CC(C)Nc1ccc(Nc2ccnc3cc4ccccc4cc23)cc1 | 7.2 µM
100 | COC(=O)c1ccc2c(c1)C(C)(C)C(/C=C/c1ccc(OC)c(OC)c1OC)=[N+]2C | 2.16 µM
101 | Clc1ccc(-c2cc(-c3nnc4n3CCCCC4)c3ccccc3n2)cc1 | 4.91 µM
102 | CC(C)CC(=O)NC(c1cccs1)c1ccc2cccnc2c1O (stereo not given) | 2.33 µM
103 | Cc1ccccc1CS(=O)(=O)c1nnc([C@H](Cc2ccccc2)NC(=O)OC(C)(C)C)o1 | 13 µM
104 | O=C(Nc1nc(-c2ccccn2)cs1)c1cc(Cl)ccc1[N+](=O)[O-] | 4.6 µM
105 | FC(F)(F)c1nc2ccccc2n2c(-c3ccc(Cl)cc3)nnc12 | 7.14 µM
106 | COc1cc(OC)c2cc(C(=O)N/N=C/c3ccccc3O)[nH]c2c1 | 8.48 µM
107 | Clc1ccc2nnnc(-c3ccccc3)c2c1 | 7.48 µM
108 | O=C(Nc1nc2ccccc2s1)c1cc(-c2ccccc2)nn1-c1ccccc1 | 3.74 µM
109 | COc1ccc(-c2cn(-c3ccc(Cl)cc3)c3[n+]2CCCCC3)cc1 | 2 µM
110 | CCCCNC(=O)c1ccc(Cn2c(=S)[nH]c3c([nH]c4ccc(OC)cc43)c2=O)cc1 | 6.92 µM
